This experiment addresses MMP-13CD (catalytic domain of collagenase 3) (Homo sapiens, UniProt P45452). The experiment can be described thus: biochemical.
`CC(C)Cn1c(=O)n(Cc2ccccc2)c(=O)c2cc(C(=O)NCc3ccc4c(c3)OCO4)ccc21` [3-Benzyl-1-isobutyl-2,4-dioxo-1,2,3,4-tetrahydroquinazoline-6-carboxylic acid (benzo[1,3]dioxol-5-ylmethyl)amide] yielded an IC50 of 600 nM.

In turn, `Cn1c(=O)n(Cc2ccccc2)c(=O)c2cc(C(=O)NCc3ccncc3)ccc21` [3-Benzyl-1-methyl-2,4-dioxo-1,2,3,4-tetrahydroquinazoline-6-carboxylic acid (4-pyridylmethyl)amide] yielded a half-maximal inhibitory concentration (IC50) of 51 nM.

For `Cn1c(=O)n(Cc2ccccc2)c(=O)c2cc(C(=O)NCc3ccccc3)ccc21` [3-Benzyl-1-methyl-2,4-dioxo-1,2,3,4-tetrahydroquinazoline-6-carboxylic acid benzylamide], the IC50 stood at 57 nM.

As to `O=C(NCc1ccc(Cl)cc1)c1ccc2[nH]c(=O)n(Cc3ccccc3)c(=O)c2c1` [3-Benzyl-2,4-dioxo-1,2,3,4-tetrahydroquinazoline-6-carboxylic acid 4-chlorobenzylamide], inhibition was half-maximal at 167 nM (IC50).

Take `COc1ccc(CNC(=O)c2ccc3[nH]c(=O)n(Cc4ccccc4)c(=O)c3c2)cc1` [3-Benzyl-2,4-dioxo-1,2,3,4-tetrahydroquinazoline-6-carboxylic acid 4-methoxybenzylamide]: it took 49 nM to reach half-maximal inhibition (IC50).

`Cc1ccc(CNC(=O)c2ccc3[nH]c(=O)n(Cc4ccccc4)c(=O)c3c2)cc1` [3-Benzyl-2,4-dioxo-1,2,3,4-tetrahydroquinazoline-6-carboxylic acid 4-methylbenzylamide] registered an IC50 of 1320 nM.

Consider `O=C(NCc1cccs1)c1ccc2[nH]c(=O)n(Cc3ccccc3)c(=O)c2c1` [3-Benzyl-2,4-dioxo-1,2,3,4-tetrahydroquinazoline-6-carboxylic acid (2-thienylmethyl)amide], for which it took 1870 nM to reach half-maximal inhibition (IC50).

The compound `O=C(NCc1cccnc1)c1ccc2[nH]c(=O)n(Cc3ccccc3)c(=O)c2c1` [3-Benzyl-2,4-dioxo-1,2,3,4-tetrahydroquinazoline-6-carboxylic acid (3-pyridylmethyl)amide] registered an IC50 of 366 nM. This IC50 is about 5.1-fold lower than that of the compound before.

For `O=C(NCc1ccncc1)c1ccc2[nH]c(=O)n(Cc3ccccc3)c(=O)c2c1` [3-Benzyl-2,4-dioxo-1,2,3,4-tetrahydroquinazoline-6-carboxylic acid (4-pyridylmethyl)amide], the IC50 amounted to 183 nM.

As to `O=C(OCc1ccncc1)c1cnc2[nH]c(=O)n(Cc3ccccc3)c(=O)c2c1` [4-Pyridylmethyl 3-benzyl-2,4-dioxo-1,2,3,4-tetrahydropyrido[2,3-d]-pyrimidine-6-carboxylate], half-maximal inhibition (IC50) was put at 62 nM.

The compound `O=C(OCc1ccccc1)c1ccc2c(c1)c(=O)n(Cc1ccncc1)c(=O)n2Cc1ccccc1` [Benzyl 1-benzyl-2,4-dioxo-3-pyrid-4-ylmethyl-1,2,3,4-tetrahydroquin-azoline-6-carboxylate] displayed an IC50 of 1210 nM.

On to `O=C(OCc1ccccc1)c1cnc2[nH]c(=O)n(Cc3ccccc3)c(=O)c2c1` [Benzyl 3-benzyl-2,4-dioxo-1,2,3,4-tetrahydropyrido[2,3-d]pyrimidine-6-carboxylate], for which half-maximal inhibition (IC50) was put at 96 nM.

In turn, `COC(=O)c1ccc(CNC(=O)c2ccc3c(c2)c(=O)n(Cc2ccccc2)c(=O)n3C)cc1` [Methyl 4-({[1-(3-benzyl-1-methyl-2,4-dioxo-1,2,3,4-tetrahydroquin-azolin-6-yl)methanoyl]amino}methyl)benzoate] had an IC50 of 2250 nM.

`O=C(NCc1ccccc1)c1ccc2[nH]c(=O)n(Cc3ccccc3)c(=O)c2c1` [Synthesis Example 22, 3-Benzyl-2,4-dioxo-1,2,3,4-tetrahydroquinazoline-6-carboxylic acid benzylamide] registered a half-maximal inhibitory concentration (IC50) of 193 nM.

As for `O=C(NCc1ccc2c(c1)OCO2)c1ccc2[nH]c(=O)n(Cc3ccccc3)c(=O)c2c1` [Synthesis Example 23, 3-Benzyl-2,4-dioxo-1,2,3,4-tetrahydroquinazoline-6-carboxylic acid (benzo[1,3]dioxol-5-ylmethyl)amide], the IC50 was found to be 21 nM.

In turn, `Cn1c(=O)n(Cc2ccccc2)c(=O)c2cc(C(=O)NCc3ccc4c(c3)OCO4)ccc21` [Synthesis Example 24] had an IC50 of 5 nM.

Turning to `COc1cc(CNC(=O)c2ccc3c(c2)c(=O)n(Cc2ccccc2)c(=O)n3C)ccc1O` [Synthesis Example 25, 3-Benzyl-1-methyl-2,4-dioxo-1,2,3,4-tetrahydroquinazoline-6-carboxylic acid 4-hydroxy-3-methoxybenzylamide], the IC50 is 51 nM.

`COc1ccc(CNC(=O)c2ccc3c(c2)c(=O)n(Cc2ccccc2)c(=O)n3C)cc1` [Synthesis Example 26, 3-Benzyl-1-methyl-2,4-dioxo-1,2,3,4-tetrahydroquinazoline-6-carboxylic acid 4-methoxybenzylamide] returned an IC50 of 12 nM.

The compound `COc1ccc(Cn2c(=O)[nH]c3ccc(C(=O)NCc4ccc5c(c4)OCO5)cc3c2=O)cc1` [Synthesis Example 27, 3-(4-Methoxybenzyl)-2,4-dioxo-1,2,3,4-tetrahydroquinazoline-6-carboxylic acid (benzo[1,3]dioxol-5-ylmethyl)amide] returned an IC50 of 15 nM.

`COc1ccc(Cn2c(=O)c3cc(C(=O)NCc4ccc5c(c4)OCO5)ccc3n(C)c2=O)cc1` [Synthesis Example 28, 3-(4-Methoxybenzyl)-1-methyl-2,4-dioxo-1,2,3,4-tetrahydroquinazoline-6-carboxylic acid (benzo[1,3]dioxol-5-ylmethyl)amide] displayed an IC50 of 9 nM.

`COc1ccc(CNC(=O)c2ccc3c(c2)c(=O)n(Cc2ccc(OC)cc2)c(=O)n3C)cc1` [Synthesis Example 29, 3-(4-Methoxybenzyl)-1-methyl-2,4-dioxo-1,2,3,4-tetrahydroquinazoline-6-carboxylic acid 4-methoxybenzylamide] registered an IC50 of 10 nM.

Turning to `O=C(NCc1ccc2c(c1)OCO2)c1ccc2[nH]c(=O)n(Cc3cccs3)c(=O)c2c1` [Synthesis Example 30, 2,4-Dioxo-3-(thien-2-ylmethyl)-1,2,3,4-tetrahydroquinazoline-6-carboxylic acid (benzo[1,3]dioxol-5-ylmethyl)amide], the half-maximal inhibitory concentration (IC50) worked out at 29 nM.

Regarding `Cn1c(=O)n(Cc2cccs2)c(=O)c2cc(C(=O)NCc3ccc4c(c3)OCO4)ccc21` [Synthesis Example 31, 1-Methyl-2,4-dioxo-3-(thien-2-ylmethyl)-1,2,3,4-tetrahydroquinazoline-6-carboxylic acid (benzo[1,3]dioxol-5-ylmethyl)amide], the IC50 came out at 9 nM. This IC50 is about 3.2-fold lower than that of the compound before.

Regarding `O=C(NCc1ccc2c(c1)OCO2)c1ccc2[nH]c(=O)n(Cc3ccc(Cl)cc3)c(=O)c2c1` [Synthesis Example 32, 3-(4-Chlorobenzyl)-2,4-dioxo-1,2,3,4-tetrahydroquinazoline-6-carboxylic acid (benzo[1,3]dioxol-5-ylmethyl)amide], the IC50 was 28 nM.

Take `Cn1c(=O)n(Cc2ccc(Cl)cc2)c(=O)c2cc(C(=O)NCc3ccc4c(c3)OCO4)ccc21` [Synthesis Example 33, 3-(4-Chlorobenzyl)-1-methyl-2,4-dioxo-1,2,3,4-tetrahydroquinazoline-6-carboxylic acid (benzo[1,3]dioxol-5-ylmethyl)amide]: it took 9 nM to reach half-maximal inhibition (IC50).

With `O=C(NCc1ccc2c(c1)OCO2)c1ccc2[nH]c(=O)n(Cc3ccc4c(c3)OCO4)c(=O)c2c1` [Synthesis Example 34, 3-(Benzo[1,3]dioxol-5-ylmethyl)-2,4-dioxo-1,2,3,4-tetrahydroquinazoline-6-carboxylic acid (benzo[1,3]dioxol-5-ylmethyl)amide], the IC50 was 17 nM.

Compound `Cn1c(=O)n(Cc2ccc3c(c2)OCO3)c(=O)c2cc(C(=O)NCc3ccc4c(c3)OCO4)ccc21` [Synthesis Example 35, 3-(Benzo[1,3]dioxol-5-ylmethyl)-1-methyl-2,4-dioxo-1,2,3,4-tetrahydroquinazoline-6-carboxylic acid (benzo[1,3]dioxol-5-ylmethyl)amide] displayed an IC50 of 3 nM. This IC50 is about 5.7-fold lower than that of the compound before.

Consider `CCn1c(=O)n(Cc2ccccc2)c(=O)c2cc(C(=O)NCc3ccc4c(c3)OCO4)ccc21` [Synthesis Example 36, 3-Benzyl-1-ethyl-2,4-dioxo-1,2,3,4-tetrahydroquinazoline-6-carboxylic acid (benzo[1,3]dioxol-5-ylmethyl)amide], for which the midpoint of inhibition, the IC50, lay at 26 nM.

As for `Cn1c(=O)[nH]c(=O)c2cc(C(=O)NCc3ccc4c(c3)OCO4)ccc21` [Synthesis Example 37, 1-Methyl-2,4-dioxo-1,2,3,4-tetrahydroquinazoline-6-carboxylic acid (benzo[1,3]dioxol-5-ylmethyl)amide], the concentration for half-maximal inhibition (IC50) came to 920 nM.

`COC(=O)c1ccc(Cn2c(=O)c3cc(C(=O)NCc4ccc(OC)cc4)ccc3n(C)c2=O)cc1` [Synthesis Example 38, 4-[6-(4-Methoxy-benzylcarbamoyl)-1-methyl-2,4-dioxo-1,4-dihydro-2H-quinazolin-3-ylmethyl]-benzoic acid methyl ester] gave an IC50 of 4 nM.

Turning to `Cn1c(=O)n(C/C=C/c2ccccc2)c(=O)c2cc(C(=O)NCc3ccc4c(c3)OCO4)ccc21` [Synthesis Example 40, 1-Methyl-2,4-dioxo-3-((E)-3-phenylallyl)-1,2,3,4-tetrahydroquinazoline-6-carboxylic acid (benzo[1,3]dioxol-5-ylmethyl)amide], 22 nM corresponded to half-maximal inhibition (IC50).

As to `O=C(OCc1ccccc1)c1ccc2[nH]c(=O)n(Cc3ccccc3)c(=O)c2c1` [Synthesis Example 41, Benzyl 3-benzyl-2,4-dioxo-1,2,3,4-tetrahydroquinazoline-6-carboxylate], 29 nM corresponded to half-maximal inhibition (IC50). This IC50 and that of the compound before are within 1.5-fold of each other.

Regarding `Cn1c(=O)n(Cc2ccccc2)c(=O)c2cc(C(=O)OCc3ccccc3)ccc21` [Synthesis Example 42, Benzyl 3-benzyl-1-methyl-2,4-dioxo-1,2,3,4-tetrahydroquinazoline-6-carboxylate], it took 31 nM to reach half-maximal inhibition (IC50).

In turn, `O=C(OCc1ccncc1)c1ccc2[nH]c(=O)n(Cc3ccccc3)c(=O)c2c1` [Synthesis Example 43, 4-Pyridylmethyl 3-benzyl-2,4-dioxo-1,2,3,4-tetrahydroquinazoline-6-carboxylate] had an IC50 of 11 nM.

For the compound `Cn1c(=O)n(Cc2ccccc2)c(=O)c2cc(C(=O)OCc3ccncc3)ccc21` [Synthesis Example 44, 4-Pyridylmethyl 3-benzyl-1-methyl-2,4-dioxo-1,2,3,4-tetrahydroquinazoline-6-carboxylate], the IC50 came out at 4 nM.

What is called IC50 is the midpoint of a concentration-inhibition curve. Low readings indicate inhibition by little substance, high ones a need for much substance.

Values taken from patent publication US20050004126A1 (priority 2001, published 2005).
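Note: inhibition of enzymatic thiopeptolide substrate cleavage (100 µM) in pH 6.0 MES buffer with CaCl2 and DTNB, comparing hydrolysis with versus without inhibitor.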
